Measured values from PubChem BioAssay (NCI).
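1) Cells in 96-well plates. 2) Compound, 48 h, 5 concentrations. 3) Linear interpolation between surrounding doses. 4) Unreached endpoint = highest concentration. GI50 is the concentration that inhibits growth by half. At the TGI there is no net growth.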 Active and inactive are the calls of the source. Rule as the data show it: active = GI50 below about 0.43 µM; inactive = the rest.

What was measured:
Experiment in all cases: NCI tumour cell line growth inhibition, 48 h
P388/ADR leukemia = tested on: P388/ADR leukemia
HOP-18 NSCLC = tested on: HOP-18 NSCLC
P388 leukemia = tested on: P388 leukemia
M19-MEL melanoma = tested on: M19-MEL melanoma
DMS 273 small cell lung = tested on: DMS 273 small cell lung
DMS 114 small cell lung = tested on: DMS 114 small cell lung
KM20L2 colon = tested on: KM20L2 colon
RXF 393 renal = tested on: RXF 393 renal
DLD-1 colon = tested on: DLD-1 colon
XF 498 CNS = tested on: XF 498 CNS
SN12K1 renal = tested on: SN12K1 renal
OVCAR-5 ovarian = tested on: OVCAR-5 ovarian
SNB-78 CNS = tested on: SNB-78 CNS
T-47D breast = tested on: T-47D breast
MDA-N = tested on: MDA-N
BT-549 breast = tested on: BT-549 breast

SMILES	TGI (P388/ADR leukemia) [µM]	TGI (HOP-18 NSCLC) [µM]	TGI (P388 leukemia) [µM]	TGI (M19-MEL melanoma) [µM]	TGI (DMS 273 small cell lung) [µM]	TGI (DMS 114 small cell lung) [µM]	TGI (KM20L2 colon) [µM]	TGI (RXF 393 renal) [µM]	TGI (DLD-1 colon) [µM]	TGI (XF 498 CNS) [µM]	TGI (SN12K1 renal) [µM]	TGI (OVCAR-5 ovarian) [µM]	TGI (SNB-78 CNS) [µM]	GI50 (T-47D breast) [µM]	TGI (T-47D breast) [µM]	GI50 (RXF 393 renal) [µM]	TGI (MDA-N) [µM]	TGI (BT-549 breast) [µM]	outcome (RXF 393 renal)	outcome (OVCAR-5 ovarian)
Cc1ccc(C#CS(=O)(=O)C(F)(F)F)cc1	> 100	> 100	> 100	> 100	> 100	> 100	> 100	> 100	> 100	> 100	> 100	> 100	> 100	–	–	–	–	–	–	–
COc1cc(-c2nc3cc(Cl)c(Cl)cc3[nH]2)ccc1OCC(=O)N=Nc1c(O)[nH]c2ccc(Cl)cc12	–	–	–	–	–	–	–	3.4	–	–	–	–	–	0.381	2.37	1	–	–	–	–
N#Cc1ccc(C2Oc3ccc(Cl)cc3C=C2[N+](=O)[O-])cc1 (stereo not drawn)	–	–	–	–	–	–	–	9.86	–	–	–	3.98	–	–	–	–	3.19	1.13	–	–
O=Cc1c(Br)[nH]c2ccccc12	> 100	> 100	> 100	> 100	> 100	–	> 100	> 100	> 100	> 100	> 100	> 100	> 100	–	–	–	–	–	–	–
Cc1cc2oc3c(ccc(=O)n3C)c(=O)c2c(C)c1Cl	–	–	–	–	–	–	–	95.6	–	–	–	> 100	–	–	> 100	–	> 100	–	–	–
O=NN1C(c2ccccc2)CCCC1c1ccccc1 (stereo not drawn)	> 100	> 100	81.8	> 100	> 100	> 100	> 100	> 100	> 100	87.5	> 100	> 100	> 100	–	–	–	–	–	–	–
CCCCOc1ccc2c(c1)CC[C@@H]1[C@@H]2CC[C@]2(C)C(=O)N(CCCC)C(=O)C[C@@H]12	–	–	–	–	–	–	–	–	–	–	–	> 100	–	–	> 100	–	> 100	> 100	–	–
CCOC(=O)C1=C(c2ccccc2)C12N(Cc1ccccc1)C(=O)C2(c1ccccc1)c1ccccc1 (stereo not drawn)	–	–	–	–	–	–	–	> 100	–	–	–	> 100	–	–	> 100	–	> 100	> 100	–	–
O=C1c2cc3c(cc2CC1Cc1ccc2c(c1)CCC2)CCC3 (stereo not drawn)	–	–	–	–	–	–	–	> 100	–	–	–	> 100	–	–	63.1	–	> 100	> 100	–	–
O=C(c1ccccc1O)c1cc(-c2ncc3c(=O)c4ccccc4oc3n2)c(-c2ccccc2O)[nH]c1=O	61	> 100	47.8	> 68.2	88.3	80.4	–	93.4	> 61.5	67.9	35.1	62.8	> 88.1	–	–	–	–	–	–	–
O=P(O)(O)CN1CCNCCN(CP(=O)(O)O)CCN(CP(=O)(O)O)CCNCC1	–	–	–	–	–	–	–	–	–	–	–	–	–	–	–	–	–	–	inactive	inactive
